Laboratory results reported in BigSolDB 2.1.

Oc1ccc(/C=C/c2cc(O)cc(O)c2)cc1
solubility (mole fraction)
Settings	273.2 K	283.2 K	293.2 K	303.2 K	313.2 K	323.2 K
in acetone	0.0846	0.0858	0.0871	0.0877	0.0886	–
in ethanol	0.0101	0.0127	0.0156	0.0182	0.0208	0.0236
in water	–	–	2.9e-06	4.57e-06	6.46e-06	9.3e-06
